Laboratory results: article PMC9974463 (Proceedings of the National Academy of Sciences of the …, 2023)

Legend:
[1] = molecular target: T1, PaAotO (Pseudomonas aeruginosa, UniProt O50184); test: Arg release coupled assay; assay type: biochemical; conditions: 1 mM substrate, 500 nM enzyme
T1 sequence (O50184 1-370): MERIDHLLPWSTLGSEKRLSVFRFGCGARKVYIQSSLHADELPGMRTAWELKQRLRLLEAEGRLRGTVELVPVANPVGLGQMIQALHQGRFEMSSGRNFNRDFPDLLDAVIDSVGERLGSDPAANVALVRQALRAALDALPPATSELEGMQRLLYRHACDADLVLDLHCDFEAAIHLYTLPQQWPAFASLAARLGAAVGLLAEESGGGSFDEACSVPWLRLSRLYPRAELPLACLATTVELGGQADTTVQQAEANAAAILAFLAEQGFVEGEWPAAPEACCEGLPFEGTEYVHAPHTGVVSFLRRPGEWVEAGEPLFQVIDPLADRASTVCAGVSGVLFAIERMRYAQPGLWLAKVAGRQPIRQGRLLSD

[2] = molecular target: T2, AbCphZ (Acinetobacter baylyi, UniProt Q6FCQ4, E251A); test: isothermal titration calorimetry; assay type: binding
T2 sequence (Q6FCQ4 1-383 E251A): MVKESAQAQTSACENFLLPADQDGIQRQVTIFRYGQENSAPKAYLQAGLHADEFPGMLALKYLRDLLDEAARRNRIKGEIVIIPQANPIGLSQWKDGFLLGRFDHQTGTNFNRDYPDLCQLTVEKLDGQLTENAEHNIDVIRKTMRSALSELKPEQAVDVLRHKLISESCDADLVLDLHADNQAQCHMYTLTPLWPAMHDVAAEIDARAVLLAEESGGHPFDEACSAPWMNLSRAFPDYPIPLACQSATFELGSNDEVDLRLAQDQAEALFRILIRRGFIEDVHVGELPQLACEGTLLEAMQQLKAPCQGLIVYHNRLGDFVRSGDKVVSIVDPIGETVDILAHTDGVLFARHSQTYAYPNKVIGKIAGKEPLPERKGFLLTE

[3] = molecular target: Acinetobacter baylyi cyanophycin dipeptide hydrolase CphZ (Acinetobacter baylyi DSM587); test: SEC
[4] = molecular target: AbCphZ E251A (Acinetobacter baylyi DSM587); test: ITC

Molecule: N=C(N)NCCC[C@H](NC(=O)C[C@H](N)C(=O)O)C(=O)O [β-Asp-Arg]
- Arg release coupled assay (340 nm) [1]: AotO is specific for β-Asp-Arg and hydrolyzes it at a rate comparable to AbCphZ
- Kd [2]: 7.6 ± 0.1 µM

Molecule: Acinetobacter baylyi cyanophycin dipeptide hydrolase CphZ (enzyme)
- stoichiometry N [3]: 2

Molecule: β-Asp-Arg dipeptide
- Kd [4]: 7.6 µM

Molecule: N=C(N)NCCC[C@H](N)C(=O)O [Arg]
- Kd [2]: 471 ± 16.8 µM
